The structures appear in SMILES notation.

In test [1] the target is T1, recombinant rhesus mineralocorticoid receptor (Macaca mulatta, UniProt A0A5F8ATS5).
T1 construct: made in house; host or cells: insect cells infected with recombinant baculovirus; clarified cell lysate used
T1 sequence (A0A5F8ATS5 1-984): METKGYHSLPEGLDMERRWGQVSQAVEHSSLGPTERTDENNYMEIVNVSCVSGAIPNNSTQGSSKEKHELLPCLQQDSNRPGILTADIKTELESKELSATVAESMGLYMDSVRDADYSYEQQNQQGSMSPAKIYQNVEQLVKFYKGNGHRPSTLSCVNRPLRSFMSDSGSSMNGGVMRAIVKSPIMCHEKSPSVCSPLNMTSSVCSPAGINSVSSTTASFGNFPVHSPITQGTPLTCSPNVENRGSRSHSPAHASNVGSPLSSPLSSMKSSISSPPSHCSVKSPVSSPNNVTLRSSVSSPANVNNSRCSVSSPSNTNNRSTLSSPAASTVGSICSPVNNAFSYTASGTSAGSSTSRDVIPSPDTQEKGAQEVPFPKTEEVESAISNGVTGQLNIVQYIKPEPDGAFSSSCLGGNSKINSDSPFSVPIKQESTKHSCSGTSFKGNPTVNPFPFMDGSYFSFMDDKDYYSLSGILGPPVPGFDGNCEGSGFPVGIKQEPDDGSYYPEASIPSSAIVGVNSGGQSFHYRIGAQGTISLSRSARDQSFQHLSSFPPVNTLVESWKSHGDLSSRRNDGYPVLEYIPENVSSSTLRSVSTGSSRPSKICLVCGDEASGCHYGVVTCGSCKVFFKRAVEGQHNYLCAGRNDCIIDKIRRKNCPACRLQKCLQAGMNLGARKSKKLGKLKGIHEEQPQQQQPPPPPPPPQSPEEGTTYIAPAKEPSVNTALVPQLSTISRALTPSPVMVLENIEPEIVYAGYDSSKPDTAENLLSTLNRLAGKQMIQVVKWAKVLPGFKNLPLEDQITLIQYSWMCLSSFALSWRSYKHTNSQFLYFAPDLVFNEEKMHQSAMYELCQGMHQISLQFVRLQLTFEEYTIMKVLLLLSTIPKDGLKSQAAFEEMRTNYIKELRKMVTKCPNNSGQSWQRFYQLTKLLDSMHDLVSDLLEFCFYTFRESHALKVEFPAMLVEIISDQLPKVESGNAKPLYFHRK
The test can be described thus: Mineralocorticoid receptor radioligand ([3H]-aldosterone) filter binding assay. The settings on record: displacement of [3H]-aldosterone, insect cell lysate, 20° C., read-out: Mineralocorticoid receptor binding affinity Ki. As for the experimental part:
Measurement of Mineralocorticoid Receptor Binding Affinity
The binding affinity of compounds for the mineralocorticoid receptor was determined by measuring their ability to prevent binding of radiolabeled aldosterone to recombinant rhesus mineralocorticoid receptor in a traditional filter binding assay protocol.
Rhesus mineralocorticoid receptor cDNA was cloned from a cDNA library using and used to prepare a recombinant baculovirus encoding the rhesus mineralocorticoid receptor coding sequence by standard molecular biological and cell biological methods. […] Cells were collected and lysed. The lysates were clarified by centrifugation and stored at −80 C until use in the radioligand binding assay.
The assays were carried out in 20 mM Hepes, 10 mM Na2MoO4, 10 mM 2-mercaptoethanol, 157 mM sucrose, and 3.7 mM CHAPS. [^3H]-Aldosterone (1 mCi/ml, 70-100 Ci/mmol) was purchased from Perkin Elmer (NET419). Test compounds were dissolved in DMSO and diluted in DMSO to 50 times the desired final concentrations for 3-fold serial dilution dose response curves. A working stock solution of [^3H]-aldosterone was prepared by dilution of the commercial stock to 0.083 μM in assay buffer. The insect cell lysate containing rhesus mineralocorticoid receptor was thawed and diluted to 0.7 mg protein/mL. Assay were started by combining 20 μL of test compound solution, 920 μL of diluted insect cell lysate, and 60 μL of [^3H]-aldosterone working solution in 2-mL 96-well polypropylene square well plates (USA Scientific) at 20° C. The mixture was incubated for 3 hr with continuous agitation on a platform shaker. The mixture was then filtered through 96-well GF/B filter plates (Packard) that had been previously treated with a solution of polyethylenimine (Sigma, P-3143). The filter plate was washed 3 times with 0.5 mL of 50 mM Tris-HCl, pH 7.4 and then dried overnight at 37° C. in a vacuum oven. The bottom of the plate was sealed and 40 μL of Microscint-20 (Packard, 6013621) was added to each well before counting radioactivity with a Topcount plate reader. Non-specific radioligand binding was determined by adding non-radiolabeled aldosterone (0.5 mM in DMSO) to the assay mixture to a final concentration of 10 μM in place of test compound. IC50 and Ki values were determined using a four parameter logistic fit using a customized assay data analyzer software package.

The conditions of test [2]: in combination with standard CHF therapy, patients suffering from advanced CHF; cited from earlier work.

`CC(c1ccccc1)n1ccnc1C(c1ccccc1)c1ccccc1` (racemic) [Compound 1-5, 2-(diphenylmethyl)-1-(1-phenylethyl)-1H-imidazole]: the Ki in test [1] worked out at 2.86 µM.
On the same count and under the same terms, the same measure for `CC(c1cccc(I)c1)n1ccnc1C(c1ccccc1)c1ccccc1` (stereo not shown) [Compound 1-6, 2-(diphenylmethyl)-1-[1-(3-iodophenyl)ethyl]-1H-imidazole]: 2.6 µM.
Still for that read-out and setting: for `COc1ccc(Cn2ccnc2C(c2ccccc2)c2ccccc2)cc1` [Compound 1-7, 2-(diphenylmethyl)-1-(4-methoxybenzyl)-1H-imidazole] the value was 2.65 µM; for `FC(F)(F)c1cccc(Cn2ccnc2C(c2ccccc2)c2ccccc2)c1` [Compound 1-8, 2-(diphenylmethyl)-1-[3-(trifluoromethyl)benzyl]-1H-imidazole], 0.41 µM.
For the compound `CC(c1cc(C(F)(F)F)cc(C(F)(F)F)c1)n1ccnc1C(c1ccccc1)c1ccccc1` (stereo not shown) [Compound 1-10, 1-{1-[3,5-bis(trifluoromethyl)phenyl]ethyl}-2-(diphenylmethyl)-1H-imidazole], the Ki in test [1] was 1.09 µM.
Turning to `FC(F)(F)c1cc(Cn2ccnc2C(c2ccccc2)c2ccccc2)cc(C(F)(F)F)c1` [Compound 1-11, 1-[3,5-bis(trifluoromethyl)benzyl]-2-(diphenylmethyl)-1H-imidazole], the Ki in test [1] came out at 1.35 µM.
The same measure, in the same setting: the same measure for `Ic1cccc(Cn2ccnc2C(c2ccccc2)c2ccccc2)c1` [Compound 1-12, 2-(diphenylmethyl)-1-(3-iodobenzyl)-1H-imidazole]: 0.287 µM.
The same measure, in the same setting: for `Cc1cccc(Cn2ccnc2C(c2ccccc2)c2ccccc2)c1` [Compound 1-13, 2-(diphenylmethyl)-1-(3-methylbenzyl)-1H-imidazole] the value was 0.134 µM; for `O=[N+]([O-])c1cccc(Cn2ccnc2C(c2ccccc2)c2ccccc2)c1` [Compound 1-14, 2-(diphenylmethyl)-1-(3-nitrobenzyl)-1H-imidazole], 0.587 µM.
The same measure, in the same setting: the same measure for `Nc1cccc(Cn2ccnc2C(c2ccccc2)c2ccccc2)c1` [Compound 1-15, 3-{[2-(diphenylmethyl)-1H-imidazol-1-yl]methyl}aniline]: 0.633 µM.
Turning to `CC(c1cc(Cl)cc(Cl)c1)n1ccnc1C(c1ccccc1)c1ccccc1` (stereo not shown) [Compound 1-16, 1-[1-(3,5-dichlorophenyl)ethyl]-2-(diphenylmethyl)-1H-imidazole], the Ki in test [1] was 0.298 µM.
On the same count and under the same terms, for `COc1ccc(Br)cc1Cn1ccnc1C(c1ccccc1)c1ccccc1` [Compound 1-17, 1-(5-bromo-2-methoxybenzyl)-2-(diphenylmethyl)-1H-imidazole] the value was 0.499 µM; for `Clc1cc2c(cc1Cn1ccnc1C(c1ccccc1)c1ccccc1)OCO2` [Compound 1-18, 1-[(6-chloro-1,3-benzodioxol-5-yl)methyl]-2-(diphenylmethyl)-1H-imidazole], 1.12 µM.
Regarding `COc1cc(OC)cc(C(=O)Nc2cccc(Cn3ccnc3C(c3ccccc3)c3ccccc3)c2)c1` [Compound 1-19, N-(3-{[2-(diphenylmethyl)-1H-imidazol-1-yl]methyl}phenyl)-3,5-dimethoxybenzamide], in test [1], the Ki amounted to 0.302 µM.
Consider `O=C(Nc1cccc(Cn2ccnc2C(c2ccccc2)c2ccccc2)c1)c1cc(Cl)cc(Cl)c1` [Compound 1-20, 3,5-dichloro-N-(3-{[2-(diphenylmethyl)-1H-imidazol-1-yl]methyl}phenyl)benzamide], for which, in test [1], the Ki is 0.162 µM.
On the same count and under the same terms, for `c1ccc(Cn2c(C(c3ccccc3)c3ccccc3)nc3ccccc32)cc1` [Compound 2-3, 1-benzyl-2-(diphenylmethyl)-1H-benzimidazole] the value was 0.964 µM.
For the compound `CC(c1ccccc1)n1c(C(c2ccccc2)c2ccccc2)nc2ccccc21` (stereo not shown) [Compound 2-4, 2-(diphenylmethyl)-1-(1-phenylethyl)-1H-benzimidazole], the Ki in test [1] amounted to 2.09 µM.
In the case of `CC(=O)S[C@@H]1CC2=CC(=O)CC[C@]2(C)[C@H]2CC[C@@]3(C)[C@@H](CC[C@@]34CCC(=O)O4)[C@H]12` [spironolactone], in test [2], the “reduced cardiac related mortality” value is 30% and the “reduced frequency of hospitalization” value is on record as 33%.

One may read the Ki as the equilibrium dissociation constant of an inhibitor or competing ligand from its target.

The values above are taken from patent US8063090B2, “Mineralocorticoid receptor modulators” (Merck Sharp & Dohme Corp., priority 2007, dated 2011).
